According to patent US10624881B2, “Methods for inducing apoptosis in cancer cells” (Health Research, Inc., priority 2015, dated 2020):
Read-outs that look alike come from different tables or passages of the source.

Columns and labels:
Mdm2 RING domain = molecular target: T1, Mdm2 RING domain (Homo sapiens, UniProt Q00987, DEL223-299); test: In vitro autoubiquitination of Mdm2 RING domain (RING-RING homo-dimers); type: biochemical; conditions: compound 10 μM, Western blot
T1 construct: made in house; host or cells: insect cells (recombinant baculovirus)
Description: In vitro ubiquitination assays were performed with Mdm2 (100 nM) and MdmX (200 nM) in the presence of nothing (C), DMSO (10 μM) or indicated compounds (10 μM), followed by WB of Mdm2 with anti-HA antibody. […] In vitro ubiquitination assays were performed with Mdm2-RING domain (100 nM) in the presence of nothing (C), DMSO (10 μM) or indicated compounds (10 μM), followed by WB of Mdm2 with anti-HA. […] FLAG-MdmX and HA-Mdm2-RING domain (HA-Mdm2R) were incubated in vitro in the presence of nothing (positive control), or DMSO (10 μM) or indicated compounds (10 μM), followed by pulldown with anti-FLAG-beads (M2) and WB of MdmX and Mdm2-RING domain with anti-FLAG and anti-HA antibodies respectively. The negative control (Neg) contains all components as in positive control sample except for missing of FLAG-MdmX.
To directly evaluate the ability of these compounds in inhibiting Mdm2-MdmX interaction, we performed in vitro pulldown experiments using recombinant FLAG-MdmX and HA-Mdm2RING proteins. After incubation of the two proteins in test tubes in the presence or absence of test compounds for 30 min at RT, FLAG-MdmX was pulled down with anti-FLAG beads followed by detection of MdmX-bound HA-Mdm2RING domain by Western blotting for HA-tag.
(§1) Materials and Methods. Plasmids, Protein Purification, and Chemical Reagents. FLAG-MdmX and HA-Mdm2 (human) constructs for insect cell expression and protein purification were described previously. HA-ubiquitin construct was generated by inserting HA-tag to the N-terminus of ubiquitin in pET28a vector. The mammalian expression plasmid pcDNA3.1-HdmX was a gift from Dr. Gokul Das (Roswell Park Cancer Institute).

Mdm2-MdmX E3 ligase = molecular target: T2, Mdm2-MdmX E3 ligase (Homo sapiens, UniProt O15151); test: In vitro MdmX-stimulated Mdm2 autoubiquitination (Western blot); type: biochemical; conditions: compound 10 μM
T2 construct: FLAG; made in house; host or cells: insect cells (baculovirus)
T2 sequence (O15151 1-490): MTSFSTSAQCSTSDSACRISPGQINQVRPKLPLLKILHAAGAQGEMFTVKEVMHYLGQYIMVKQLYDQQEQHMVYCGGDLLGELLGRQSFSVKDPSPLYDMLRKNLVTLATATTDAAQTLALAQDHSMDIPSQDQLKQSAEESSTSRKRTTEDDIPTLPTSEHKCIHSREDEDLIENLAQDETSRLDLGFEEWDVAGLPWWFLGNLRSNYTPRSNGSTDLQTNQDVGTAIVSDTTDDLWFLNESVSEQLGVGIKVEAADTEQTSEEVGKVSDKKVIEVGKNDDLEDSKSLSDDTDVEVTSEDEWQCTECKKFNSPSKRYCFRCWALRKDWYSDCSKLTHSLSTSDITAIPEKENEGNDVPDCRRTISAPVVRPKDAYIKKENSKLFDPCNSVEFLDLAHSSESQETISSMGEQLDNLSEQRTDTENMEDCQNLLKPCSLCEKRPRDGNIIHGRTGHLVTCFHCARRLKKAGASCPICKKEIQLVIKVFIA
Text: as §1
In vitro validation assays by Mdm2 autoubiquitination and p53 ubiquitination by Mdm2-MdmX and NEDD4-1 autoubiquitination. In order to test the compound specificity, we used two sets of ubiquitination reaction. One is MdmX stimulated Mdm2 autoubiquitination, the other is NEDD4-1 autoubiquitination. […] The former reaction includes 100 nM HA-tagged Mdm2 and 200 nM MdmX, and latter reaction includes 200 nM HA-tagged NEDD4-1. After adding compound to final concentration of 10 μM, the reaction was started by incubation at 30° C. in a water bath for one hour. Then the reaction was stopped by adding SDS sample buffer, followed by SDS-PAGE and Western blot analysis for HA or NEDD4-1. In vitro assays for p53 ubiquitination by Mdm2-MdmX were performed as described previously. Briefly, reactions were carried out as described above for Mdm2 autoubiquitination except for addition of 100 nM p53. Compounds or DMSO of final concentrations of 10 μM were added in the reaction before starting the reaction at 30° C. for 1 h followed by WB of p53 with DO-1 antibody.

NALM6 cells = test: Flow cytometry of sub-G1 population in NALM6 cells (PI staining); type: cell-based
Text: Sub-G1 fractions of each treatment were shown.
Proliferation and apoptosis assays.

[1] = system: p53 pathway in HCT8 cells; conditions: Western blot, time- and concentration-dependent
NALM6 = test: Cell proliferation assay, NALM6 cells; type: cell-based; conditions: 72 h, read-out: IC50 of Compounds, NALM6
[2] = system: p53 pathway in NALM6 cells
RL4RH cells = test: RRCL proliferation assay, drug-resistant lymphoma RL4RH cells; type: cell-based; conditions: for IC50: 3-day treatment
Raji4RH cells = test: RRCL proliferation assay, drug-resistant lymphoma Raji4RH cells; type: cell-based; conditions: for IC50: 3-day treatment
NALM6-shp53 cells = test: Apoptosis markers in NALM6-shp53 cells (Western blot); type: cell-based; conditions: NALM6-shp53 versus NALM6, 24 h
Text: Actin was the loading control.

mouse bone marrow cells = conditions: for IC50: read-out: IC50, CFU-GM, mouse bone marrow cells, 7-day continuous treatment
Description: For the bone marrow toxicity assay, the following method was used. 400 μL of murine marrow mononuclear cells (2.0×10^5/mL) in IMDM containing 20% FBS, 10 units/mL recombinant murine GM-CSF, 10% of a 10× drug solution or control solution (DMSO), and 0.3% agarose were pipetted into microwells containing a 0.4-mL underlayer of IMDM and 0.3% agarose. The cultures were allowed to gel at 4° C. for 15 min and incubated at 37° C. in a fully humidified atmosphere of 5% CO2 in air for 7 days. CFU-GM colonies (aggregates of ≥40 cells) were counted with an inverted microscope using phase contrast. Percent survivals were calculated as 100× (the number of colonies in the drug-treated groups divided by the number of colonies in the vehicle control-treated group). IC50 values were determined.

NALM6-shp53 = test: Cell proliferation assay, NALM6-shp53 cells (p53 shRNA knockdown); type: cell-based
Description: Proliferation and apoptosis assays. Growth inhibition assays and apoptosis assays were carried out as described previously.

T1 sequence (Q00987 with tags, fused parts or gaps isoform Q00987-2 DEL28-104): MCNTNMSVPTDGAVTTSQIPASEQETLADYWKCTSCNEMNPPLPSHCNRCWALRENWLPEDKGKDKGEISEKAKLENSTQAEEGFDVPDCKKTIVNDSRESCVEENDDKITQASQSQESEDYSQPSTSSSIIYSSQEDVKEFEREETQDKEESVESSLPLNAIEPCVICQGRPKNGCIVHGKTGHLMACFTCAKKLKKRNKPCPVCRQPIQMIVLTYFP

With `Oc1c(C(Nc2ccccn2)c2cccc(Cl)c2Cl)ccc2cccnc12` (stereo not shown) [MMRi62] the “inhibition of autoubiquitination of Mdm2 RING domain (RING-RING homo-dimers)” value (“inhibition … (RING-RING homo-dimers)” for short) (Mdm2 RING domain) was “do not inhibit” and the “inhibition of Mdm2 autoubiquitination stimulated by MdmX” value (“inhibition … by MdmX” below) (Mdm2-MdmX E3 ligase) was “inhibit”.

In the case of `Oc1c(C(Nc2ccccn2)c2ccc(Cl)c(Cl)c2)ccc2cccnc12` (stereo not shown) [MMRi61], the “inhibition … (RING-RING homo-dimers)” value (Mdm2 RING domain) is reported as “do not inhibit” and the “inhibition … by MdmX” value (Mdm2-MdmX E3 ligase) is reported as “inhibit”.

Work on `COc1ccc(C2=N[C@@H](c3ccc(Cl)cc3)[C@@H](c3ccc(Cl)cc3)N2C(=O)N2CCNC(=O)C2)c(OC(C)C)c1` [Nutlin3a, reference compound] yielded a sub-G1 population (NALM6 cells; 0.5 μM, 48 h) of 0.4%, a sub-G1 population (NALM6 cells; 1 μM, 48 h) of 0.8% and a sub-G1 population (NALM6 cells; 2 μM, 48 h) of 3.0%. The sub-G1 population (NALM6 cells; 2 μM, single treatment, combination experiment) was 1.3%, the “effect on MdmX level in HCT8 cells” value [1] was “not obvious” and the IC50 (NALM6) was 1270 nM. The “PUMA induction in NALM6 cells” value ([2]; 1 μM, time course) was “stronger p53 accumulation and PUMA induction than MMRi64”, the “p21 induction in NALM6 cells” value ([2]; 1 μM, time course to 24 h) was “strong induction of growth-arresting effector p21” and the “effect on Mdm2 expression in NALM6 cells” value ([2]; Western blot) was “strong induction of Mdm2 protein”. For the same compound, the “effect on MdmX levels in NALM6 cells” value ([2]; Western blot) was “slightly decreased MdmX levels”.

For `Cc1ccnc(NC(c2cccc(Cl)c2Cl)c2ccc3cccnc3c2O)c1` (stereo not shown) [MMRi64], the IC50 (RL4RH cells) was 1000 nM, the sub-G1 population (NALM6 cells; 0.2 μM, single treatment, combination experiment) was 0.73% and the sub-G1 population (NALM6 cells; 0.4 μM, single treatment, combination experiment) was 2.5%. The sub-G1 population (NALM6 cells; 0.5 μM, 48 h) was 7.3%, the sub-G1 population (NALM6 cells; 1 μM, 48 h) was 20% and the IC50 (Raji4RH cells) was 180 nM. The “effect of shRNA knockdown of p53 on apoptosis induction” value (NALM6-shp53 cells) was “did not affect apoptosis induction”, the IC50 (NALM6) was 145 nM and the IC50 (mouse bone marrow cells) was 1600 nM.

With `COc1cc([C@@H]2c3cc4c(cc3[C@@H](O[C@@H]3O[C@@H]5CO[C@@H](C)O[C@H]5[C@H](O)[C@H]3O)[C@H]3COC(=O)[C@H]23)OCO4)cc(OC)c1O` [Etoposide, etoposide] the IC50 (RL4RH cells) was 6300 nM, the “TW BM/CC, RL4RH” value (RL4RH cells; therapeutic window, CFU-GM IC50 versus RL4RH IC50) was −19x and the IC50 (Raji4RH cells) was 1700 nM. For the same compound, the “TW BM/CC, Raji4RH” value (Raji4RH cells; therapeutic window, CFU-GM IC50 versus Raji4RH IC50) was −5x, the IC50 (NALM6; listed as marked (nM)) was 2.23 nM and the “fold more toxic to normal mouse bone marrow cells” value (mouse bone marrow cells) was 5 fold. The “fold more toxic to normal mouse bone marrow cells relative to RRCLs” value (mouse bone marrow cells) was 5-20 fold, the IC50 (mouse bone marrow cells) was 320 nM and the IC50 (NALM6-shp53; 72 h, listed as marked (nM), read-out: IC50 of Compounds, NALM6-shp53) was 19.9 nM. For the same compound, the Fold change (NALM6-shp53; IC50 NALM6-shp53 versus NALM6, 72 h) was 9x.

For `Oc1c(C(Nc2ccccn2)c2ccccc2Br)cc(Cl)c2cccnc12` (stereo not shown) [MMRi65], the “inhibition … (RING-RING homo-dimers)” value (Mdm2 RING domain) was “do not inhibit” and the “inhibition … by MdmX” value (Mdm2-MdmX E3 ligase) was “inhibit”.

`Oc1c(C(Nc2ccccn2)c2cccc(Br)c2)cc(Cl)c2cccnc12` (stereo not shown) [MMRi63] was tested, and the “inhibition … (RING-RING homo-dimers)” value (Mdm2 RING domain) was “do not inhibit” and the “inhibition … by MdmX” value (Mdm2-MdmX E3 ligase) was “inhibit”.
